Assay results published in ChEMBL document CHEMBL4819136, “Design and synthesis of garlic-related unsymmetrical thiosulfonates as potential Alzheimer's disease therapeutics: In vitro and in silico study” (Bioorg Med Chem, 2021).
pIC50, pKi: −log10 of the molar value.

How the values were obtained:
[1] = target: Cholinesterase (Homo sapiens, UniProt P06276); assay: Inhibition of human serum BuChE using butyrylthiocholine iodide as substrate preincubated with enzyme for 10 mins followed by substrate addition and measured by Ellman's method; format: cell-free
[2] = target: T1, Acetylcholinesterase (Homo sapiens, UniProt P22303); assay: Potency index, ratio of rivastigmine IC50 to test compound IC50 for human recombinant AChE using acetylthiocholine iodide as substrate preincubated with enzyme for 10 mins followed by substrate addition and measured by Ellman's method
[3] = target: T1, Acetylcholinesterase
Description: Inhibition of human recombinant AChE using acetylthiocholine iodide as substrate preincubated with enzyme for 10 mins followed by substrate addition and measured by Ellman's method

T1 sequence (P22303 whole entry): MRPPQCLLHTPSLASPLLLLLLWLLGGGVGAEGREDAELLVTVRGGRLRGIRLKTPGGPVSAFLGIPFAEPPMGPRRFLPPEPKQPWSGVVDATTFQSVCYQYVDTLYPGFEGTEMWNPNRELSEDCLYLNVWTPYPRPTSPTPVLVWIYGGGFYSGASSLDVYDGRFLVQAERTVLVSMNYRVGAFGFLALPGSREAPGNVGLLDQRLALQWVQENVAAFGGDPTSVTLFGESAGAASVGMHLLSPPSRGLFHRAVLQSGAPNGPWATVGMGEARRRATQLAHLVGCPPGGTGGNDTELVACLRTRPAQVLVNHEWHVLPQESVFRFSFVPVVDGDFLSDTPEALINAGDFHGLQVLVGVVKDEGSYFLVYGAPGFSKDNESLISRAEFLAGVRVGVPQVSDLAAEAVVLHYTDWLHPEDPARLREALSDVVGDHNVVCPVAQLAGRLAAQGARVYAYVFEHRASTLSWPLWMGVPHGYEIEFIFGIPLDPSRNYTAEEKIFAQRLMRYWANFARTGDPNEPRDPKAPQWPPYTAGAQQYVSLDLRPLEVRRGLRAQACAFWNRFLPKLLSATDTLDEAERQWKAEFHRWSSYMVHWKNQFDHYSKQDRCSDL
Chain of Cholinesterase (P06276 whole entry): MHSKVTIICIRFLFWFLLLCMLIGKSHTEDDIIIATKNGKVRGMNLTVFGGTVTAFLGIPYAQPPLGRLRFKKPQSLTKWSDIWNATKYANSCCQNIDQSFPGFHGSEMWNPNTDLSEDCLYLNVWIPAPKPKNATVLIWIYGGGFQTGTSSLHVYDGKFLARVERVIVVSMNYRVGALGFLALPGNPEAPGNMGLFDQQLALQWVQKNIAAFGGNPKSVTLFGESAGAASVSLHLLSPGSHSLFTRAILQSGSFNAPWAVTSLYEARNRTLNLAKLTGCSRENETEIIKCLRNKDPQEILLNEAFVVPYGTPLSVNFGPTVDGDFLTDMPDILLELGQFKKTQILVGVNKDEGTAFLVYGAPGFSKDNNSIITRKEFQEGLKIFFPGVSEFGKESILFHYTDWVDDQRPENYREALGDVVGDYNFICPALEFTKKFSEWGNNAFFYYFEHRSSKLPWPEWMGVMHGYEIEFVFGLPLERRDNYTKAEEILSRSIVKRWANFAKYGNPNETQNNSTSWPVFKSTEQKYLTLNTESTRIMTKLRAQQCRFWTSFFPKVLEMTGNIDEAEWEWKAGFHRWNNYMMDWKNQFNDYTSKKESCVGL

Structure (SMILES) | pIC50 [1] | pKi [1] | Ratio IC50 [2] | pIC50 [3] | pKi [3]
Cc1ccc(S(=O)(=O)SCc2ccc(C(C)C)cc2)cc1 | 7.07 | 7.42 | 5 | 7.92 | 7.59
Cc1ccc(S(=O)(=O)SCc2ccc(C#N)cc2)cc1 | 6.69 | 6.70 | – | 6.71 | 6.78
Cc1ccc(S(=O)(=O)SCc2ccc(OC(F)(F)F)cc2)cc1 | 7.27 | 7.76 | – | 6.89 | 6.70
Cc1ccc(S(=O)(=O)SCc2ccc(F)cc2)cc1 | 6.52 | 6.68 | – | 6.51 | 6.49
Cc1ccc(S(=O)(=O)SCc2ccccc2)cc1 | 6.50 | 6.66 | – | 6.29 | 6.41
COc1ccc(CSS(=O)(=O)c2ccc(C)cc2)cc1 | 6.70 | 6.60 | – | 6.31 | 6.66
Cc1ccc(S(=O)(=O)SCc2ccc([N+](=O)[O-])cc2)cc1 | 6.67 | 6.52 | – | 6.67 | 6.60
Cc1ccc(S(=O)(=O)SCc2ccc(C(F)(F)F)cc2)cc1 | 6.93 | 6.99 | – | 7.06 | 6.83
Cc1ccc(S(=O)(=O)SCc2ccc(Cl)cc2)cc1 | 6.50 | 6.70 | – | 6.32 | 6.15
